Experimental data taken from patent US20070020334A1, “Benzimidazole formulation” (priority 2005, published 2007).
Read-outs that look alike come from different tables or passages of the source.

Tests used:
[1] = cited from earlier work; for pKa2 / pKa3 / pKa: approximate; for pKa: pKa of the acid
[2] = Particle size by laser light scattering (Malvern); assay type: physicochemical; settings: raw material of Table 7
Procedure: Samples have been dried for minimum 12 hours at 40° C. prior to the measurements.

Row | SMILES | pKa2 [1] | pKa3 [1] | pKa [1] | also measured
1 | N=C(N)NCCC[C@H](N)C(=O)O [Arginine] | pKa2: 9.1 | pKa3: 13.2 | – | pH ([1]; 100 g/L H2O): pH≈11.4
2 | O=C([O-])[O-].[Ca+2] [Calcium carbonate] | – | – | 10.3 | –
3 | O=C([O-])[O-].[Na+].[Na+] [DiSodium carbonate] | – | – | 10.3 | –
4 | N[C@@H](Cc1c[nH]cn1)C(=O)O [Histidine] | – | pKa3: 9.0 | – | pH ([1]; 10 g/L H2O): pH≈7.7
5 | NCCCC[C@H](N)C(=O)O [Lysine] | pKa2: 8.9 | – | – | –
6 | COc1ccnc(C[S+]([O-])c2nc3ccc(OC(F)F)cc3[nH]2)c1OC (stereo not drawn) [Pantoprazole sodium sesquihydrate] | – | – | – | D(v; 0.5) [2]: 7 μm
